In patent publication US10351594B2, “Process for preparing compounds having triple activities of thrombolysis, antithrombosis, and radical scavenging” (Shanghai Lumosa Therapeutics Co., Ltd., priority 2013, dated 2019):
Like-named read-outs stand apart in the source and are kept apart here.

Tested on: stroke rats
[1] = 2.5 μmol/kg 5Ak after 6 hours from stroke onset, 1st day
[2] = 2.5 μmol/kg 5Ak after 6 hours from stroke onset, 2nd day
[3] = 2.5 μmol/kg 5Ak after 6 hours from stroke onset, 3rd day
[4] = 2.5 μmol/kg 5Ak after 6 hours from stroke onset, 4th day
[5] = 2.5 μmol/kg 5Ak after 6 hours from stroke onset, 5th day
[6] = 2.5 μmol/kg 5Ak after 6 hours from stroke onset, 6th day
[7] = 2.5 μmol/kg 5Ak after 24 hours from stroke onset, 1st day
[8] = 2.5 μmol/kg 5Ak after 24 hours from stroke onset, 2nd day
[9] = 2.5 μmol/kg 5Ak after 24 hours from stroke onset, 3rd day
[10] = 2.5 μmol/kg 5Ak after 24 hours from stroke onset, 4th day
[11] = 2.5 μmol/kg 5Ak after 24 hours from stroke onset, 5th day
[12] = 2.5 μmol/kg 5Ak after 24 hours from stroke onset, 6th day
[13] = 5 μmol/kg 5Ak after 24 hours from stroke onset, 1st day
[14] = 5 μmol/kg 5Ak after 24 hours from stroke onset, 2nd day
[15] = 5 μmol/kg 5Ak after 24 hours from stroke onset, 3rd day
[16] = 5 μmol/kg 5Ak after 24 hours from stroke onset, 4th day
[17] = 5 μmol/kg 5Ak after 24 hours from stroke onset, 5th day
[18] = 5 μmol/kg 5Ak after 24 hours from stroke onset, 6th day
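Note: male SD rats with thrombus-induced cerebral embolism via internal carotid artery, scored daily by Zealonga neurological deficit scale (0 no deficit to 5 death), lower score better.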

Experimental: The therapeutic effect was evaluated by neurological functional scores. The lower the score was, the better the therapeutic effect was. A 10% chloral hydrate solution was injected intraperitoneally into male SD rats at a dosage of 400 mg/kg body weight for anesthesia. A longitudinal incision was made at the center of the neck, and the right common carotid artery trunk was separated (about 3 cm in length). External carotid artery branches were each separated and ligated at the hyoid level, and the internal carotid artery was separated from the swollen part of the neck. The incision of the internal carotid artery and the proximal end of the common carotid artery were clipped respectively with noninvasive arterial clips, and the distal end of the external carotid artery was ligated. A catheter containing 0.5 mL thrombus suspension in normal saline was inserted in the external carotid artery trunk. When the clip on the internal carotid artery was released, the 0.5 mL thrombus suspension in normal saline in the catheter slowly flew from the external carotid artery to its proximal end, and then was injected into the arteries in brain through the internal carotid artery. Subsequently, the proximal end of the internal carotid artery was ligated, the arterial clips on the internal carotid artery and the common carotid artery were released, and blood flow was restored. After the wound was stitched up, 20,000 IU penicillin was intramuscularly injected for prevention from infection. […] Self-comparison was performed each day, and the neurological deficit degree was evaluated by the Zealonga method. A score of 0 indicated no sign of loss in neural function, 1 indicated the front limbs on the undamaged side could not stretch out, 2 indicated walking toward the undamaged side, 3 indicated tail-chasing walking in circles toward the undamaged side, 4 indicated involuntary walking with disturbance of consciousness, and 5 indicated death.

C[C@H](NC(=O)[C@@H]1CCCN1)C(=O)N[C@@H](CCCCN)C(=O)NCCCC[C@H](NC(=O)[C@@H]1Cc2cc(O)c(O)cc2C(C)(C)N1)C(=O)O [Compound 5Ak, 3S-6,7-dihydroxy-1,1-dimethyl-1,2,3,4-tetrahydro-isoquinoline-3-acyl-Lys(Pro-Ala-Lys)]
therapeutic effect, result in words (2.5 μmol/kg 5Ak after 6 hours from stroke onset): better therapeutic effect than 1 μmol/kg 5Ak | Daily neural function scores, number of rats under 0 score [1]: 1 | Daily neural function scores, number of rats under 1 score [1]: 7 | Daily neural function scores, number of rats under 2 scores [1]: 0 | Daily neural function scores, number of rats under 3 scores [1]: 1 | Daily neural function scores, number of rats under 4 scores [1]: 0 | Daily neural function scores, number of rats under 5 scores [1]: 0 | Daily neural function scores, number of rats under 0 score [2]: 3 | Daily neural function scores, number of rats under 1 score [2]: 4 | Daily neural function scores, number of rats under 2 scores [2]: 2 | Daily neural function scores, number of rats under 3 scores [2]: 0 | Daily neural function scores, number of rats under 4 scores [2]: 0 | Daily neural function scores, number of rats under 5 scores [2]: 0 | Daily neural function scores, number of rats under 0 score [3]: 6 | Daily neural function scores, number of rats under 1 score [3]: 2 | Daily neural function scores, number of rats under 2 scores [3]: 1 | Daily neural function scores, number of rats under 3 scores [3]: 0 | Daily neural function scores, number of rats under 4 scores [3]: 0 | Daily neural function scores, number of rats under 5 scores [3]: 0 | Daily neural function scores, number of rats under 0 score [4]: 6 | Daily neural function scores, number of rats under 1 score [4]: 3 | Daily neural function scores, number of rats under 2 scores [4]: 0 | Daily neural function scores, number of rats under 3 scores [4]: 0 | Daily neural function scores, number of rats under 4 scores [4]: 0 | Daily neural function scores, number of rats under 5 scores [4]: 0 | Daily neural function scores, number of rats under 0 score [5]: 5 | Daily neural function scores, number of rats under 1 score [5]: 4 | Daily neural function scores, number of rats under 2 scores [5]: 0 | Daily neural function scores, number of rats under 3 scores [5]: 0 | Daily neural function scores, number of rats under 4 scores [5]: 0 | Daily neural function scores, number of rats under 5 scores [5]: 0 | Daily neural function scores, number of rats under 0 score [6]: 7 | Daily neural function scores, number of rats under 1 score [6]: 2 | Daily neural function scores, number of rats under 2 scores [6]: 0 | Daily neural function scores, number of rats under 3 scores [6]: 0 | Daily neural function scores, number of rats under 4 scores [6]: 0 | Daily neural function scores, number of rats under 5 scores [6]: 0 | therapeutic effect, result in words (2.5 μmol/kg 5Ak after 24 hours from stroke onset): certain therapeutic effect | Daily neural function scores, number of rats under 0 score [7]: 1 | Daily neural function scores, number of rats under 1 score [7]: 4 | Daily neural function scores, number of rats under 2 scores [7]: 1 | Daily neural function scores, number of rats under 3 scores [7]: 0 | Daily neural function scores, number of rats under 4 scores [7]: 1 | Daily neural function scores, number of rats under 5 scores [7]: 0 | Daily neural function scores, number of rats under 0 score [8]: 3 | Daily neural function scores, number of rats under 1 score [8]: 2 | Daily neural function scores, number of rats under 2 scores [8]: 1 | Daily neural function scores, number of rats under 3 scores [8]: 1 | Daily neural function scores, number of rats under 4 scores [8]: 0 | Daily neural function scores, number of rats under 5 scores [8]: 0 | Daily neural function scores, number of rats under 0 score [9]: 3 | Daily neural function scores, number of rats under 1 score [9]: 2 | Daily neural function scores, number of rats under 2 scores [9]: 1 | Daily neural function scores, number of rats under 3 scores [9]: 0 | Daily neural function scores, number of rats under 4 scores [9]: 0 | Daily neural function scores, number of rats under 5 scores [9]: 1 | Daily neural function scores, number of rats under 0 score [10]: 2 | Daily neural function scores, number of rats under 1 score [10]: 2 | Daily neural function scores, number of rats under 2 scores [10]: 1 | Daily neural function scores, number of rats under 3 scores [10]: 1 | Daily neural function scores, number of rats under 4 scores [10]: 0 | Daily neural function scores, number of rats under 5 scores [10]: 0 | Daily neural function scores, number of rats under 0 score [11]: 4 | Daily neural function scores, number of rats under 1 score [11]: 0 | Daily neural function scores, number of rats under 2 scores [11]: 1 | Daily neural function scores, number of rats under 3 scores [11]: 0 | Daily neural function scores, number of rats under 4 scores [11]: 0 | Daily neural function scores, number of rats under 5 scores [11]: 1 | Daily neural function scores, number of rats under 0 score [12]: 3 | Daily neural function scores, number of rats under 1 score [12]: 1 | Daily neural function scores, number of rats under 2 scores [12]: 1 | Daily neural function scores, number of rats under 3 scores [12]: 0 | Daily neural function scores, number of rats under 4 scores [12]: 0 | Daily neural function scores, number of rats under 5 scores [12]: 0 | rats that died during successive 6-day treatment (2.5 μmol/kg 5Ak once per day after 6 hours from stroke onset, nine rats): no death occurred | rats that died during successive 6-day treatment (2.5 μmol/kg 5Ak once per day after 24 hours from stroke onset, seven rats): two | therapeutic effect, result in words (5 μmol/kg 5Ak after 24 hours from stroke onset): definite therapeutic effect | Daily neural function scores, number of rats under 0 score [13]: 0 | Daily neural function scores, number of rats under 1 score [13]: 5 | Daily neural function scores, number of rats under 2 scores [13]: 4 | Daily neural function scores, number of rats under 3 scores [13]: 0 | Daily neural function scores, number of rats under 4 scores [13]: 1 | Daily neural function scores, number of rats under 5 scores [13]: 0 | Daily neural function scores, number of rats under 0 score [14]: 2 | Daily neural function scores, number of rats under 1 score [14]: 6 | Daily neural function scores, number of rats under 2 scores [14]: 2 | Daily neural function scores, number of rats under 3 scores [14]: 0 | Daily neural function scores, number of rats under 4 scores [14]: 0 | Daily neural function scores, number of rats under 5 scores [14]: 0 | Daily neural function scores, number of rats under 0 score [15]: 2 | Daily neural function scores, number of rats under 1 score [15]: 6 | Daily neural function scores, number of rats under 2 scores [15]: 2 | Daily neural function scores, number of rats under 3 scores [15]: 0 | Daily neural function scores, number of rats under 4 scores [15]: 0 | Daily neural function scores, number of rats under 5 scores [15]: 0 | Daily neural function scores, number of rats under 0 score [16]: 5 | Daily neural function scores, number of rats under 1 score [16]: 5 | Daily neural function scores, number of rats under 2 scores [16]: 0 | Daily neural function scores, number of rats under 3 scores [16]: 0 | Daily neural function scores, number of rats under 4 scores [16]: 0 | Daily neural function scores, number of rats under 5 scores [16]: 0 | Daily neural function scores, number of rats under 0 score [17]: 6 | Daily neural function scores, number of rats under 1 score [17]: 4 | Daily neural function scores, number of rats under 2 scores [17]: 0 | Daily neural function scores, number of rats under 3 scores [17]: 0 | Daily neural function scores, number of rats under 4 scores [17]: 0 | Daily neural function scores, number of rats under 5 scores [17]: 0 | Daily neural function scores, number of rats under 0 score [18]: 7 | Daily neural function scores, number of rats under 1 score [18]: 3 | Daily neural function scores, number of rats under 2 scores [18]: 0 | Daily neural function scores, number of rats under 3 scores [18]: 0 | Daily neural function scores, number of rats under 4 scores [18]: 0 | Daily neural function scores, number of rats under 5 scores [18]: 0 | rats that died during successive 6-day treatment (5 μmol/kg 5Ak once per day after 24 hours from stroke onset, ten rats): no death occurred
